1 molecule from PMC5218480 (PLoS ONE, 2017) can be followed below.

The assay relates to MV-4-11 cells. Kind of assay: Gene expression microarray analysis (Affymetrix PrimeView) and GSEA. Conditions: gene FGFR1OP; ACY-1035 1 mM; LIST F. The format is cell-based, human.

Molecules are shown by their SMILES.

For the molecule `Nc1ccc(-c2cccs2)cc1NC(=O)c1ccc2c(c1)cc(C1CC1)n2CCN1CCOCC1` [ACY-1035], the “RFU, FGFR1OP (ProbeSet 11751329_s_at)” value was determined as 243.91 RFU.
